Assay results from ChEMBL document CHEMBL1122476 (J Med Chem, 1983).

Target: Glutamate receptor ionotropic, AMPA (Rattus norvegicus, UniProt P19490+P19491+P19492+P19493)
Experiment: Tested for inhibition of Specific DL-[H]Ionotropic glutamate receptor AMPA binding to rat brain membranes
Type: cell membranes, Membrane

IC50: > 100 µM
Structure (SMILES): COc1noc(C)c1CC(N)C(=O)O (stereo unspecified)
